Source: patent US20260216348A1, “IRAK DEGRADATION AGENT AND USE THEREOF” (Increland, priority 2023, published 2026)
pIC50: −log10 of the molar value.

Each compound was assayed on LPS/IL-1β-induced IL-6 secretion in human peripheral blood mononuclear cells (PBMCs) (assay: Inhibition of LPS/IL-1β-induced IL-6 secretion in human PBMCs (IL-6 ELISA)). Conditions: PBMC, LPS 10 ng/mL + IL-1β 20 ng/mL, 24 h pre-incubation, 20 h stimulation.
Format: cell-based
Method: This experiment was carried out in RPMI 1640 medium containing 10% FBS and 1% penicillin/streptomycin, with each of the compounds at an initial test concentration of 1 μM.
The compound was dissolved in DMSO to prepare a stock solution, which was serially diluted into some working solutions with a 5-fold concentration gradient using the culture medium and then added to a 96-well plate at 10 μL per well. PBMCs (Batch No.: P122101102C; Milecell Biotechnology Inc.) were counted and diluted to a cell concentration of about 1.3×10^6 cells/mL, and then added to the aforementioned compound-containing 96-well plate at 150 μL per well. The system was mixed well and incubated in a 5% CO2 incubator at 37° C. for 24 h. Then 5 μL of LPS (final concentration: 10 ng/mL) and 5 μL of IL-1β (final concentration: 20 ng/mL) were added to each well, respectively, and the culture was continued for 20 h in a 5% CO2 incubator at 37° C. After incubation, the 96-well plate was centrifuged at 2000 rpm for 4 min. The supernatant was collected and diluted 200-fold, then detected using an IL-6 ELISA kit. The OD450 values were read, and converted to IL-6 concentrations based on a standard curve. The dose-response curves were fitted using GraphPad 8.0 to calculate the IC50 values.
`O=C1CCC(c2ccc3cn(C4CCN(C[C@H]5CC[C@H](n6cc7cc(NC(=O)c8cnn9cccnc89)c(N8CCOCC8)cc7n6)CC5)CC4)nc3c2)C(=O)N1` (some centres unmarked) [TM-1] showed a pIC50 of 8.23.
With `O=C1CCC(c2ccc3nn(C4CCN(C[C@H]5CC[C@H](n6cc7cc(NC(=O)c8cnn9cccnc89)c(N8CCOCC8)cc7n6)CC5)CC4)cc3c2)C(=O)N1` (some centres unmarked) [TM-2] the pIC50 was 8.29.
With `C[C@@H]1CN(C[C@H]2CC[C@H](n3cc4cc(NC(=O)c5cnn6cccnc56)c(N(C)C)cc4n3)CC2)CC[C@H]1n1cc2ccc(N3CCC(=O)NC3=O)cc2n1` [TM-26] the pIC50 was 9.27.
In the case of `O=C1CCN(c2ccc3nn(C4CCN(C[C@H]5CC[C@H](n6cc7cc(NC(=O)c8cnn9cccnc89)c(N8CCOCC8)cc7n6)CC5)CC4)cc3c2)C(=O)N1` [TM-44], the pIC50 was 7.99.
`C[C@@H]1CN(c2cc3nn([C@H]4CC[C@H](CN5CCC(n6cc7ccc(N8CCC(=O)NC8=O)cc7n6)CC5)CC4)cc3cc2NC(=O)c2cnn3cccnc23)CCO1` [TM-45] showed a pIC50 of 8.06.
For `C[C@@H]1CN(c2cc3nn([C@H]4CC[C@H](CN5CCC(n6cc7cc(N8CCC(=O)NC8=O)ccc7n6)CC5)CC4)cc3cc2NC(=O)c2cnn3cccnc23)CCO1` [TM-46], the pIC50 was 8.13.
With `C[C@@H]1CN(c2cc3nn([C@H]4CC[C@H](CN5CCC(n6cc7cc(C8CCC(=O)NC8=O)ccc7n6)CC5)CC4)cc3cc2NC(=O)c2cnn3cccnc23)CCO1` (some centres unmarked) [TM-47] the pIC50 was 8.51.
`C[C@@H]1CN(c2cc3nn([C@H]4CC[C@H](CN5CCC(n6cc7ccc(C8CCC(=O)NC8=O)cc7n6)CC5)CC4)cc3cc2NC(=O)c2cnn3cccnc23)CCO1` (some centres unmarked) [TM-48] gave a pIC50 of 8.79.
With `C[C@@H]1CN(c2cc3nn(C4CCN(CC5CCC(n6cc7cc(C8CCC(=O)NC8=O)ccc7n6)CC5)CC4)cc3cc2NC(=O)c2cnn3cccnc23)CCO1` (some centres unmarked) [TM-49] the pIC50 was 8.88.
Compound `C[C@@H]1CN(c2cc3nn(C4CCN(CC5CCC(n6cc7ccc(C8CCC(=O)NC8=O)cc7n6)CC5)CC4)cc3cc2NC(=O)c2cnn3cccnc23)CCO1` (some centres unmarked) [TM-50] has a pIC50 of 8.33.
With `CN(C)c1cc2nn(C3CCN(C[C@H]4CC[C@H](n5cc6ccc(N7CCC(=O)NC7=O)cc6n5)CC4)CC3)cc2cc1NC(=O)c1cnn2cccnc12` [TM-52] the pIC50 was 7.73.
In the case of `CN(C)c1cc2nn(C3CCN(C[C@H]4CC[C@H](n5cc6cc(N7CCC(=O)NC7=O)ccc6n5)CC4)CC3)cc2cc1NC(=O)c1cnn2cccnc12` [TM-53], the pIC50 was 8.21.
With `CN(C)c1cc2nn([C@H]3CC[C@H](CN4CCN(c5nc6cc(N7CCC(=O)NC7=O)ccc6s5)CC4)CC3)cc2cc1NC(=O)c1cnn2cccnc12` [TM-54] the pIC50 was 8.51.
With `CN(C)c1cc2nn([C@H]3CC[C@H](CN4CCN(c5nc6ccc(N7CCC(=O)NC7=O)cc6s5)CC4)CC3)cc2cc1NC(=O)c1cnn2cccnc12` [TM-55] the pIC50 was 8.79.
`C[C@@H]1CN(c2cc3nn([C@H]4CC[C@H](CN5CCN(c6nc7cc(N8CCC(=O)NC8=O)ccc7s6)CC5)CC4)cc3cc2NC(=O)c2cnn3cccnc23)CCO1` [TM-56] was tested, and the pIC50 was 8.06.
`C[C@@H]1CN(c2cc3nn([C@H]4CC[C@H](CN5CCN(c6nc7ccc(N8CCC(=O)NC8=O)cc7s6)CC5)CC4)cc3cc2NC(=O)c2cnn3cccnc23)CCO1` [TM-57] was tested, and the pIC50 was 7.99.
`CN(C)c1cc2nn(C3CCC(CN4CC5CN(c6nc7ccc(N8CCC(=O)NC8=O)cc7s6)CC5C4)CC3)cc2cc1NC(=O)c1cnn2cccnc12` (centres unmarked) [TM-60] showed a pIC50 of 8.71.
In the case of `CN(C)c1cc2nn(C3CCC(CN4CC5CN(c6nc7cc(N8CCC(=O)NC8=O)ccc7s6)CC5C4)CC3)cc2cc1NC(=O)c1cnn2cccnc12` (centres unmarked) [TM-61], the pIC50 was 8.94.
With `C[C@@H]1CN(c2cc3nn([C@H]4CC[C@H](CN5CC6CN(c7nc8ccc(N9CCC(=O)NC9=O)cc8s7)CC6C5)CC4)cc3cc2NC(=O)c2cnn3cccnc23)CCO1` (some centres unmarked) [TM-62] the pIC50 was 8.61.
Compound `C[C@@H]1CN(c2cc3nn([C@H]4CC[C@H](CN5CC6CN(c7nc8cc(N9CCC(=O)NC9=O)ccc8s7)CC6C5)CC4)cc3cc2NC(=O)c2cnn3cccnc23)CCO1` (some centres unmarked) [TM-63] has a pIC50 of 8.05.
With `C[C@@H]1CN(C[C@H]2CC[C@H](n3cc4cc(NC(=O)c5cnn6cccnc56)c(N(C)C)cc4n3)CC2)CCN1c1nc2ccc(N3CCC(=O)NC3=O)cc2s1` [TM-65] the pIC50 was 8.65.
For `C[C@H]1CN(C[C@H]2CC[C@H](n3cc4cc(NC(=O)c5cnn6cccnc56)c(N(C)C)cc4n3)CC2)CCN1c1nc2ccc(N3CCC(=O)NC3=O)cc2s1` [TM-66], the pIC50 was 7.71.
In the case of `CN(C)c1cc2nn([C@H]3CC[C@H](CN4C[C@@H]5C[C@H]4CN5c4nc5ccc(N6CCC(=O)NC6=O)cc5s4)CC3)cc2cc1NC(=O)c1cnn2cccnc12` [TM-74], the pIC50 was 9.07.
In the case of `CN(C)c1cc2nn([C@H]3CC[C@H](CN4CCN(c5nc6ccc(N7CCC(=O)NC7=O)cc6o5)CC4)CC3)cc2cc1NC(=O)c1cnn2cccnc12` [TM-75], the pIC50 was 7.88.
With `CN(C)c1cc2nn([C@H]3CC[C@H](CN4C[C@H]5C[C@@H]4CN5c4nc5ccc(N6CCC(=O)NC6=O)cc5o4)CC3)cc2cc1NC(=O)c1cnn2cccnc12` [TM-83] the pIC50 was 7.36.
For `CN(C)c1cc2nn([C@H]3CC[C@H](CN4CCN(c5nc6cc(F)c(N7CCC(=O)NC7=O)cc6o5)CC4)CC3)cc2cc1NC(=O)c1cnn2cccnc12` [TM-85], the pIC50 was 8.08.
`CN(C)c1cc2nn([C@H]3CC[C@H](CN4CC5(CCN(c6nc7cc(F)c(N8CCC(=O)NC8=O)cc7o6)CC5)C4)CC3)cc2cc1NC(=O)c1cnn2cccnc12` [TM-90] gave a pIC50 of 8.84.
`CN(C)c1cc2nn([C@H]3CC[C@H](CN4CCN(c5nc6ccc(N7CCC(=O)NC7=O)cn6n5)CC4)CC3)cc2cc1NC(=O)c1cnn2cccnc12` [TM-110] gave a pIC50 of 7.67.
Compound `CN(C)c1cc2nn(C3CCN(CC4CCN(c5nc6cc(N7CCC(=O)NC7=O)ccc6s5)CC4)CC3)cc2cc1NC(=O)c1cnn2cccnc12` [TM-128] has a pIC50 of 7.44.
With `CN(C)c1cc2nn([C@H]3CC[C@H](CN4CCC(C5Nc6cc(N7CCC(=O)NC7=O)ccc6C5=O)CC4)CC3)cc2cc1NC(=O)c1cnn2cccnc12` (some centres unmarked) [TM-144] the pIC50 was 7.42.
With `CN(C)c1cc2nn([C@H]3CC[C@H](CN4CCN(c5nc6cc(N7CCC(=O)NC7=O)ccc6o5)CC4)CC3)cc2cc1NC(=O)c1cnn2cccnc12` [TM-145] the pIC50 was 8.58.
`CN(C)c1cc2nn([C@H]3CC[C@H](CN4C5CCC4CN(c4nc6ccc(N7CCC(=O)NC7=O)cc6o4)C5)CC3)cc2cc1NC(=O)c1cnn2cccnc12` [TM-146] gave a pIC50 of 7.36.
Work on `CN(C)c1cc2nn([C@H]3CC[C@H](CN4CC5(CCN(c6nc7ccc(N8CCC(=O)NC8=O)cn7n6)CC5)C4)CC3)cc2cc1NC(=O)c1cnn2cccnc12` [TM-148] yielded a pIC50 of 7.94.
`CN(C)c1cc2nn([C@H]3CC[C@H](CN4CCCN(c5nc6ccc(N7CCC(=O)NC7=O)cc6s5)CC4)CC3)cc2cc1NC(=O)c1cnn2cccnc12` [TM-150] gave a pIC50 of 8.16.
`CN(C)c1cc2nn([C@H]3CC[C@H](CN4CCC(c5cc6cc(N7CCC(=O)NC7=O)ccn6n5)CC4)CC3)cc2cc1NC(=O)c1cnn2cccnc12` [TM-175] was tested, and the pIC50 was 7.88.

What follows are compounds tested against T1, IRAK4 (Homo sapiens, UniProt Q9NWZ3) (assay: IRAK4 protein degradation in THP1 cells (Western blot)). Conditions: THP-1 cells, 24 h.
T1 construct: Effect of the Compounds on IRAK4 Protein Degradation in THP1 Cells; endogenous in cells; host or cells: THP-1 cells
T1 sequence (Q9NWZ3 1-460): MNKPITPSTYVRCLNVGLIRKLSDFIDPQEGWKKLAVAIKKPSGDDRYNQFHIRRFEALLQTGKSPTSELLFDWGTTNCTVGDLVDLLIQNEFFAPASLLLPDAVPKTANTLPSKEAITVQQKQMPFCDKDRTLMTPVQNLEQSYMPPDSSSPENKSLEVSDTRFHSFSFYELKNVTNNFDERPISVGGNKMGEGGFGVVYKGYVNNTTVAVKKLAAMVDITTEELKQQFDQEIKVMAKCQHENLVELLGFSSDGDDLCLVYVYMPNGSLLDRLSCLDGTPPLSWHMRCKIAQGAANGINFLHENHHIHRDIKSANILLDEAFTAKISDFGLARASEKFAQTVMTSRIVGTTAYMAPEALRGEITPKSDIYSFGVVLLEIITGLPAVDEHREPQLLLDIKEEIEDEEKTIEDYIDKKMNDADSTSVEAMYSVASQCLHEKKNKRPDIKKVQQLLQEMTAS
Format: cell-based
Method: THP-1 cells were seeded into a 96-well cell culture plate, with 2×10^5 cells and 90 μL of culture medium per well. The cell culture plate was cultured in an incubator with 5% CO2 at 37° C. overnight. The compound was dissolved in DMSO to prepare a stock solution, which was serially diluted into a series of working solutions with a 5-fold concentration gradient using the culture medium and then added to the aforementioned 96-well plate at 10 μL per well. The cell culture plate was further incubated for 24 h in a 5% CO2 incubator at 37° C. After incubation, the 96-well plate was centrifuged and the supernatant was discarded, followed by adding 40 μL of cell lysis buffer containing […]/phosphatase inhibitors to each well for sufficient lysis on an ice bath. Protein quantification was performed using the BCA protein quantification kit, followed by the preparation of Western blot samples. […] After electrophoresis, protein transfer was performed using a PVDF membrane under ice bath conditions for 1 h. After the transfer was completed, the PVDF membrane was blocked with gentle shaking in 5% skim milk at room temperature for 1 h. After blocking, the PVDF membrane was incubated with the primary antibody overnight with gentle shaking at 4° C. The PVDF membrane was washed 3 times with TBST, then the secondary antibody was added and incubated for 1 h with gentle shaking at room temperature, followed by washing of the PVDF membrane with TBST for 3 times. After the washes were completed, the chemiluminescent substrate was added; the PVDF membrane was scanned using a Clinx imager, semi-quantitative analysis was performed with ImageJ software, and the DC50 was calculated using GraphPad Prism 8.0.
Compound `CN(C)c1cc2nn([C@H]3CC[C@H](CN4CCC5(CC4)C[C@@H](n4cc6cc(F)c(C7CCC(=O)NC7=O)cc6n4)CO5)CC3)cc2cc1NC(=O)c1cnn2cccnc12` (some centres unmarked) [TM-140] has a DC50 of 13.9 nM.
`CN(C)c1cc2nn([C@H]3CC[C@H](CN4CCC(c5nc6cc(C7CCC(=O)NC7=O)c(F)cc6o5)CC4)CC3)cc2cc1NC(=O)c1cnn2cccnc12` (some centres unmarked) [TM-147] was tested, and the DC50 was 11 nM.
In the case of `CN(C)c1cc2nn([C@H]3CC[C@H](CN4CC[C@H](n5cc6cc(C7CCC(=O)NC7=O)ccc6n5)[C@@H](F)C4)CC3)cc2cc1NC(=O)c1cnn2cccnc12` (some centres unmarked) [TM-168], the DC50 was 1.78 nM.
